# Results taken from patent US20260060239A1, “NATURAL-BASED SALICYLIC ACID POLY(ANHYDRIDE ESTER) HYDROGELS FOR AGRICULTURAL APPLICATIONS” (The Regents of The University of California, priority 2022, published 2026).
# Read-outs that look alike come from different tables or passages of the source.
# Assays:
# micro-tom tomato plants [1] = conditions: for percent plant growth (plant height) during dosage window: FIG. 9A
# Experimental: Exogenous application of salicylic acid favors plants under stress by regulating processes such as photosynthesis, membrane permeability, nutrient uptake, transpiration, and the activity of antioxidant enzymes. […] Final measurements of plant height, water content, root length, and tomato production yield were also performed.
# Micro-tom was germinated from seeds under hydroponic conditions and grown under vertical farming conditions. Soilless clay media was used, and smart fertilizer was applied. Plants were incubated under normal conditions for 16 days. Seedlings were then transplanted using pre-wet clay and incubated under normal conditions in Percival chambers with abundant water supply and regular water exchanges for an additional 34 days. The Percival chambers were used to mimic environmental conditions. The day and night cycles were set for 16 hour (day) at 25° C. followed by 8 hour (night) at 25° C. CO2 levels were maintained at 410 ppm with 70% relative humidity.
# Each plant was labeled, and initial measurements were taken including plant height, total number of leaves, branches, and total number of flower buds, flowers and tomatoes if applicable. Individual group pictures were taken as visual record and first dose was applied accordantly to the group's requirements and schedules (FIG. 7). Dose regimen was similar between all groups with a total duration of 7 days (Dosage Window). Doses were applied at days 0, 2 and 4 of the dosage window. Remaining water in the group trays were removed right before dose applications. Chemicals were applied as a powder directly in the clay surface avoiding contact with the plant. All plants received 75 mL right after dose application. At day 7, remaining water in the trays were removed, final plants measurements and visual observation was recorded. Death plants were removed from the study. Extra clay and fertilizer were added, and DI-water was applied to all plants: 150 mL to normal plants and 50 mL to drought plants to activate the fertilizer.
# micro-tom tomato plants [2] = assay: Treatment window under drought stress conditions (water supply removed); assay type: in vivo; conditions: for first death under drought: FIG. 12
# Experimental: Plants were incubated under normal conditions for 16 days. […] The Percival chambers were used to mimic environmental conditions.
# (§1) All plants received 75 mL right after dose application. […] Death plants were removed from the study.
# (§2) The treatment window corresponds to the period of time where the groups were exposed to either normal conditions with abundant water supply or to intense drought stress conditions where the water supply was completely removed until plants were found dead. At day 48 of the plant cycle, groups correspondent to the drought condition had all the water removed from the tray and were kept in the chamber. Plants under normal conditions had regularly water exchange two times a week until the end of the plant cycle. All plants were closely monitored, and visible observations were recorded, including measurements of plant height, number of leaves, branches, flower buds, flowers, and tomatoed were taken regularly. Clay and fertilizer were applied as needed and dead plants were removed from the study.
# micro-tom tomato plants [3] = assay type: in vivo
# Experimental: The Percival chambers were used to mimic environmental conditions.
# as §1
# as §2, with “At” for “The treatment window corresponds to the period of time where the groups were exposed to either normal conditions with abundant water supply or to intense drought stress conditions where the water supply was completely removed until plants were found dead. At”
# The harvest day was determined by the abundant number of red tomatoes: plant measurements were performed as described above. Plants were removed from their pots and clay was washed out of the roots. Tomatoes were harvested, photographed, and measured (diameter, height and mass). Individual plants were also photographed. Root and plant length was recorded, and plant mass was measured using a scale.
# [4] = 3x: three dosages of 0.05 mmol SA
smiles,measurement,setting,value
"O=C(O)c1ccccc1O [SA, salicylic acid]",percent plant growth (plant height) during dosage window,micro-tom tomato plants [1]; 1x: single dose 0.15 mmol SA or equivalent,negligible
same,variation in the number of branches during dosage window,"micro-tom tomato plants [1]; 1x: single dose 0.15 mmol, FIG. 9B",decrease
same,stress and deaths after the dosage window,"micro-tom tomato plants [1]; 1x: single powder dose, 0.15 mmol SA (or equivalent in polymer) per plant, FIG. 8",more harmful
same,percent plant growth (plant height) during dosage window,micro-tom tomato plants [1]; [4],smaller than the DI-water control group
same,stress caused during dosage window,"micro-tom tomato plants [1]; 3x: three dosages of 0.05 mmol SA, compared with SA 1x",less significative
same,plants mortality right after treatment,micro-tom tomato plants [1]; compared with SAPAE,higher
same,first death under drought,"micro-tom tomato plants [2]; 1x: single dose 0.15 mmol SA or equivalent, day of treatment window",17 days
same,first death under drought,micro-tom tomato plants [2]; [4],20 days
same,flower production under drought stress,"micro-tom tomato plants [2]; 3x, 14 days treatment time point, flower buds, no opened flowers, FIG. 11",second-best group
same,plants dead at time of harvest,"micro-tom tomato plants [3]; 1x, across the study, FIG. 15",three
same,total number of red tomatoes per group,"micro-tom tomato plants [3]; 1x, harvest day, FIG. 19B",least number of red tomatoes
same,percent plant growth after 14 days,"micro-tom tomato plants [3]; 1x, normal conditions, FIG. 10A",lowest percent growth
same,variation of number of branches during the treatment window,"micro-tom tomato plants [3]; 1x, normal conditions, FIG. 13B",highest variation
same,roots holding the clay after removal from the pot,"micro-tom tomato plants [3]; 3x, harvest",stronger at holding the clay in place
same,total number of tomatoes per group,"micro-tom tomato plants [3]; 3x, harvest day, compared with DI water, FIG. 19A",similar
